How the values were obtained:
[1] = first clinical trials, similar daily doses; cited from earlier work
[2] = cited from earlier work; for Solubility in water: water between pH 1 and 11
[3] = physiologic pH range; cited from earlier work
[4] = Solubility of Enzalutamide in surfactants; assay type: physicochemical
Procedure: In the first reference test formulation, 12 mg of Enzalutamide was completely dissolved in 0.27 ml of Labrasol. In second reference test formulations 12 mg of Enzalutamide is completely dissolved in 0.27 ml of Tween 80. In third reference test formulation, 12 mg of Enzalutamide is completely dissolved in 0.27 ml of Tween 80 and 0.15 mg of HPMC has been added. It should be noted that solubility of Enzalutamide is about the same in Tween and in Labrasol ([…] of Enzalutamide per 1 ml of either Tween 80 or Labrasol). The three test formulations were dissolved in 15 ml of pH 6.8 phosphate buffer and Enzalutamide concentration was measured at time points from 10 to 360 minutes.

In the case of CNC(=O)c1ccc(N2C(=S)N(c3cnc(C#N)c(C(F)(F)F)c3)C(=O)C23CCC3)cc1F [ARN-509, 4-[7-[6-Cyano-5-(trifluoromethyl)pyridin-3-yl]-8-oxo-6-thioxo-5,7-diazaspiro[3.4]octan-5-yl]-2-fluoro-N-methylbenzamide], the “Effectiveness versus Enzalutamide” value [1] is listed as “more effective than Enzalutamide”, the “Solubility in N-methyl-2-pyrrolidone (NMP)” value [2] is listed as “soluble” and the “Solubility in absolute ethanol” value [2] is listed as “sparingly soluble”. For the same compound, the Solubility in acetone [2] was “soluble”, the Solubility in water [2] was “practically insoluble” and the Ionisation state [3] was “remain unionized”.
For CNC(=O)c1ccc(N2C(=S)N(c3ccc(C#N)c(C(F)(F)F)c3)C(=O)C2(C)C)cc1F [Enzalutamide, 4-{3-[4-Cyano-3-(trifluoromethyl)phenyl]-5,5-dimethyl-4-oxo-2-thioxoimidazolidin-1-yl}-2-fluoro-N-methylbenzamide], the “Solubility in N-methyl-2-pyrrolidone (NMP)” value [2] is given as “soluble”, the “Solubility in absolute ethanol” value [2] is given as “sparingly soluble” and the Solubility in acetone [2] is given as “soluble”. The Solubility in water [2] was “practically insoluble”, the “Solubility of Enzalutamide in Labrasol” value ([4]; Labrasol) was “about 36 mg per 1 ml” and the “Solubility of Enzalutamide in Tween 80” value ([4]; Tween 80) was “about 36 mg per 1 ml”. The Ionisation state [3] was “remain unionized”.

— patent US20200163882A1, “Solid Pharmaceutical Compositions Of Androgen Receptor Antagonists” (Lek Pharmaceuticals d.d., priority 2014, published 2020)
